According to publication PMC6093650, “Antidepressive and anxiolytic effects of ostruthin, a TREK-1 channel activator” (PLoS ONE, 2018):

How the values were obtained:
TASK-3 = molecular target: T1, TASK-3 (Homo sapiens, UniProt Q9NPC2); assay: whole-cell patch-clamp of TASK-3 currents in 293T cells; assay type: cell-based
T1 construct: expressed in transfected cells; host or cells: 293T (transient, calcium-phosphate transfection)
Excerpt: (§1) For recordings of K^+ channel currents, we prepared stable cell lines for TREK-1, TWIK-related acid-sensitive K^+ channel (TASK-1), strongly inwardly rectifying K^+ channel (Kir2.1), and human ether-a-go-go-related gene (HERG-1) channels and transiently expressed other channels in 293T cells using a calcium-phosphate transfection method. For the establishment of the stable lines, we used lentiviral vectors, and the preparation methods for the lentiviral vectors were described in our previous report. TR-1 cells, which stably expressed TREK-1 channel and were grown on a small cover glass (3 × 18 mm), were placed in a recording chamber with an internal volume of 200 μl. Whole-cell currents were recorded in Tyrode solution using an Axopatch 200B amplifier (Axon Instruments, Foster City, CA) at 25°C. Tyrode solution contained (in mM): NaCl 140, KCl 5.4, NaH2PO4 0.33, CaCl2 2, MgCl2 1, HEPES 5, and glucose 5.5 (pH 7.4 adjusted with NaOH). […] Perfusion (100 μl/min) was continued to maintain the water level throughout recordings. pH and osmotic pressure of solutions were measured with a pH meter (Horiba, Kyoto, Japan) and a freezing point osmometer (Knauer, Berlin, Germany), respectively. […]

HERG-1 = molecular target: T2, HERG-1 (Homo sapiens, UniProt Q12809); assay: whole-cell patch-clamp of HERG-1 tail currents in 293T cells; assay type: cell-based; conditions: outward tail current, n = 5
T2 construct: expressed in transfected cells
Excerpt: as §1

[1] = test system: depression-like behavior of mice; assay: social defeat stress test; assay type: in vivo; conditions: C57BL/6J mice after 9 days of defeat, p = 0.440, n = 14
Excerpt: Male ICR mice (n = 317 in total) aged 5 weeks and weighing 32 ± 2 g were purchased from Shimizu Laboratory Supplies (Kyoto, Japan). For the social defeat stress test, we used 28 C57BL/6J mice (5 weeks old, Shimizu Laboratory Supplies) and 30 ICR mice (7–8 weeks old, Charles River Labs Japan, Yokohama, Kanagawa, Japan). Mice were maintained for at least 1 week prior to experiments. Animals were kept in groups in plastic cages. They had free access to food and water, and were kept in a 12-h light/dark cycle (08:00–20:00). Experiments were carried out between 10:00 and 18:00 in a quiet and air-conditioned experimental room, in which mice were habituated for at least 30 min before each experiment. Animal experiments were performed in accordance with the guidelines of the Physiological Society of Japan and were approved by the Committees on Animal Experiments at Kansai Medical University and the Kurashiki University of Science and the Arts. Ostruthin was initially dissolved in DMSO at higher concentration (100 mM) and then diluted in phosphate-buffered saline (PBS). The diluted solution was mixed vigorously for more than 10 min before the experiments, and an equal volume of DMSO was added to PBS as a control. […] Time spent in the target zone was measured firstly with the empty mesh enclosure for 150 sec. […]

c-Fos immunoreactivity = assay: anti-c-Fos immunostaining of mouse brain nuclei; assay type: in vivo, mice
Experimental: The mouse was put into an anesthetizing jar and isoflurane (>0.2 ml) was added to the jar. After confirming that mouse was deeply anesthetized, its brain was fixed by transcardiac perfusion with 4% paraformaldehyde in PBS. The brains were sliced coronally (100 μm in thickness) using a microslicer (PRO7, Dosaka, Kyoto, Japan). The free-floating slices were reacted with an anti-c-Fos antibody (1: 200, goat, Santa Cruz, Dallas, TX) dissolved in PBS containing 0.3% BSA and 0.3% Triton-X-100, at 4°C for 48 h. The immunoreaction was visualized using a secondary antibody (rabbit anti-goat IgG, Vectastain Elite ABC-HRP Kit, Vector Labs, Burlingame, CA) and 3,3'-Diaminobenzidine (DAB, Tokyo Chemical Industry, Tokyo, Japan) at room temperature in accordance with the manufacturer’s instructions.
For statistical analysis, the number of c-Fos-immunoreactive cells was quantified using the Image-J software. Briefly, fields (0.16 mm^2) of c-Fos immunoreactivity were acquired by a microscope IX70 (Olympus) using a CCD camera. DAB-positive nuclei, of which diameters were longer than 7 μm, were considered as anti-c-Fos-immunoreactive neurons. The immunoreactive cell numbers were normalized to cells/mm^2.

[2] = 5 mg/kg, 30 min after tail suspension stress, n = 4

T1 sequence (Q9NPC2 whole entry, species assumed): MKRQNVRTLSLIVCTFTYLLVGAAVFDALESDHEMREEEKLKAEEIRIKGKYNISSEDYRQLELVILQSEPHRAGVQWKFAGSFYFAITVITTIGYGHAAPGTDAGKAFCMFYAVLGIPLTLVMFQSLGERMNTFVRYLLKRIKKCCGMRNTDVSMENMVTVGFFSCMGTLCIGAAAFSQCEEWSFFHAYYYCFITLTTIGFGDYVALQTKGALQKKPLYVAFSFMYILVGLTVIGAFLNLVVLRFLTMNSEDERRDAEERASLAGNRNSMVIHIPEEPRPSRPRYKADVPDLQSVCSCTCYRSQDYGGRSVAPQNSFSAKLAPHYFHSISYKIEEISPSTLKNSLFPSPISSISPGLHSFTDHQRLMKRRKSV
T2 sequence (Q12809 whole entry): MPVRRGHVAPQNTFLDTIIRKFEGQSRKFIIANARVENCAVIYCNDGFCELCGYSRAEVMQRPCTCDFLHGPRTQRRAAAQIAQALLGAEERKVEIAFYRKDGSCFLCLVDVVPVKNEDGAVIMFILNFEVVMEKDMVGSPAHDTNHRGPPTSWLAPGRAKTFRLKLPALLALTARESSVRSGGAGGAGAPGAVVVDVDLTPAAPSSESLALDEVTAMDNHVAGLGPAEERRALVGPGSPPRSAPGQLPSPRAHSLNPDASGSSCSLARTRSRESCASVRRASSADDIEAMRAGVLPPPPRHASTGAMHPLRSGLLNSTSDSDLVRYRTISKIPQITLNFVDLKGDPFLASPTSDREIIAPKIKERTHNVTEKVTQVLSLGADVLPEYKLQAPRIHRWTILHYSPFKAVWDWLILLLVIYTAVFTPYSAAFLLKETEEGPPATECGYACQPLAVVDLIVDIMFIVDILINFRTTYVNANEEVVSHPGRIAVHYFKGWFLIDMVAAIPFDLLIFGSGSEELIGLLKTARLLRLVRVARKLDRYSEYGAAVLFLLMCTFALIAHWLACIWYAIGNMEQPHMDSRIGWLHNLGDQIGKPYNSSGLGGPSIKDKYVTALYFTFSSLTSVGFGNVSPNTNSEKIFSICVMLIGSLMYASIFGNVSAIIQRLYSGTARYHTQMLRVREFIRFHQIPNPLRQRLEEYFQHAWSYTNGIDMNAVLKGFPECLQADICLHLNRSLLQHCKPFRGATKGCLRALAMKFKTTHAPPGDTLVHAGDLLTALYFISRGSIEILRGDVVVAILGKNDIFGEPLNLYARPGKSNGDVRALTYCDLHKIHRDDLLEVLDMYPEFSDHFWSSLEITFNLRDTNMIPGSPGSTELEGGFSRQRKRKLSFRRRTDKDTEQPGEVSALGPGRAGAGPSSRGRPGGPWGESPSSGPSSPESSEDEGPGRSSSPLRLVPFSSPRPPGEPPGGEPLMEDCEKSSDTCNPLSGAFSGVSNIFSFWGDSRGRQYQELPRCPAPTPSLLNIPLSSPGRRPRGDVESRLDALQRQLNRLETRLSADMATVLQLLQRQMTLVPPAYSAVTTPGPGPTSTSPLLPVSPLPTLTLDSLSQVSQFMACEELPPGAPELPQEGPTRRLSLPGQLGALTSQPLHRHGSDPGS

- IC50 (TASK-3): 227 µM
Structure (SMILES): CC(C)=CCC/C(C)=C/Cc1cc2ccc(=O)oc2cc1O [ostruthin]
- IC50 (HERG-1): 216 µM
- time difference in the interaction area (target zone) [1]: increased the time difference in the interaction area non-significantly
- stress-induced c-Fos immunoreactivity in most nuclei (PVN, PVT, CeA, BLA, DRD, DRV) (c-Fos immunoreactivity; [2]): no significant differences
- stress-induced increase in c-Fos immunoreactivity in the lateral septum (LS) (c-Fos immunoreactivity; [2]): significantly suppressed
- anti-c-Fos immunoreactivity in non-stressed animals (c-Fos immunoreactivity; fixed 30 min after administration, vs PBS (data not shown)): no difference
